Laboratory results taken from US10294496B2, “Methods for biosynthesizing 1,3 butadiene” (INVISTA North America S.á r.l., priority 2013, dated 2019).

Molecular target: T1, linalool dehydratase (EC 4.2.1.127) (Castellaniella defragrans, UniProt E1XUJ2)
T1 construct: His tag; made in house; host or cells: E. coli BL21 (pARZ4 vector)
Assay: Enzyme activity of linalool dehydratase using 3-buten-2-ol as substrate (headspace GC-MS for butadiene)
Assay type: biochemical
Settings: 11 mM 3-buten-2-ol, 25° C., purified his-tagged enzyme, butadiene in headspace by GC-MS
Source text: The his-tagged linalool dehydratase (EC 4.2.1.127) from Castellaniella defragrans was cloned into a pARZ4 vector and transformed into E. coli BL21. The resulting strain was cultivated and induced using […] (isopropylthio-β-galactoside) in a shake flask culture containing Luria Broth media and kanamycin selection pressure.
The cells from each of the induced shake flask cultures were harvested and pelleted by centrifugation. The cell pellet was resuspended and the cells were lysed. The cell debris was separated from the supernatant via centrifugation and filtered using a 0.2 μm filter. The enzyme was purified from the filtered supernatant using Ni-affinity chromatography and concentrated and buffer exchanged using a Vivaspin 15R Centrifugal Concentrator and Hi-trap Desalting column into 80 mM Tris buffer (pH=9).
Non-native enzyme activity assays were undertaken in a buffer containing 11 mM of 3-buten-2-ol at 25° C. The activity assays were undertaken in 2 mL septum-sealed vials, thereby allowing butadiene accumulation in the headspace. The reaction was initiated by adding 1 mL of purified enzyme to the assay buffer containing the substrate.
The headspace was sampled for butadiene analysis by GC-MS (gas chromatography-mass spectrometry). […] Also, the ion peak areas were above the limit of quantitation for the GC-MS.

T1 sequence (E1XUJ2 27-397): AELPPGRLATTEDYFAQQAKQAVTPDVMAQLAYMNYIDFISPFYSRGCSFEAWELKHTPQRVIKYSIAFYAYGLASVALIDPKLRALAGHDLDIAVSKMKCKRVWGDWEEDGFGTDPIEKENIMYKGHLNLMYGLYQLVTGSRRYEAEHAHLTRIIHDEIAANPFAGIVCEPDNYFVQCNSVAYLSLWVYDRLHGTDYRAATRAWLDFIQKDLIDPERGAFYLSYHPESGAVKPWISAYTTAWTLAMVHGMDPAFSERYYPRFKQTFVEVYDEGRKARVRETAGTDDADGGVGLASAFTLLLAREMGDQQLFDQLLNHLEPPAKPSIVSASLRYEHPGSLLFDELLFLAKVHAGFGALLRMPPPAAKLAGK

C=CC(C)O (stereo not shown) [3-buten-2-ol]
non-native enzyme activity: substrate acceptance, synthesis of butadiene: accepts 3-buten-2-ol as a substrate
